Assay results taken from ChEMBL document CHEMBL1287667, “A targeted low molecular weight near-infrared fluorescent probe for prostate cancer” (Bioorg Med Chem Lett, 2010).
Calls of active or inactive are those of the source. The rule behind the calls is not given here.

Key:
[1] = target: T1, Glutamate carboxypeptidase 2 (Homo sapiens, UniProt Q04609); assay: Inhibition of PSMA in human LNCaP cells; format: cell-based
Target sequence in this assay (Q04609 whole entry): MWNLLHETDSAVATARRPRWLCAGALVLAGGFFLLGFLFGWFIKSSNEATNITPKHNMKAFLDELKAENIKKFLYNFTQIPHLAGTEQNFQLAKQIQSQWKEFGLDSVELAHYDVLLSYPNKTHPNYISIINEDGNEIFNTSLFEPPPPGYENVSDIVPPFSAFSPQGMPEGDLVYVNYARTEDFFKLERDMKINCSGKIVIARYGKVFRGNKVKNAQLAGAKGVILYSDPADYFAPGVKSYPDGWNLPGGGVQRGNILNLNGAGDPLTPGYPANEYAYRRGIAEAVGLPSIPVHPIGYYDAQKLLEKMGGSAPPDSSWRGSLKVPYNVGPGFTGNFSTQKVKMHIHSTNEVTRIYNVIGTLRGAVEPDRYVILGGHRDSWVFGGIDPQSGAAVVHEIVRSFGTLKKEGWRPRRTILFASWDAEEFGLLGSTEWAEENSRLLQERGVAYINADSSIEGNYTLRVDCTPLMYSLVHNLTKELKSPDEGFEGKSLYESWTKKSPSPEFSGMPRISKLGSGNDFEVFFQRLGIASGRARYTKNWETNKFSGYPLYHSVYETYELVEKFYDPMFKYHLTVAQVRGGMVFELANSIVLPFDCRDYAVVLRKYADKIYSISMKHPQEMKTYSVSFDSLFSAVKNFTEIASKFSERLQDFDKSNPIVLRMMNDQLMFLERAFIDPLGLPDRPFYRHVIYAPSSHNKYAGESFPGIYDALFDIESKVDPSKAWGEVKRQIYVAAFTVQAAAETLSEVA

[2] = target: T1, Glutamate carboxypeptidase 2; assay: Reversible inhibition of purified PSMA at 10 times IC50 after 25 mins measured after 100 fold dilution
Target sequence in this assay (Q04609 whole entry, looked up): as the sequence (Q04609 whole entry) above

## CCN1/C(=C/C=C/C=C/C2=[N+](CCCCCC(=O)N[C@@H](CCC(=O)N[C@@H](COP(=O)([O-])O[C@@H](CCC(=O)O)C(=O)O)C(=O)O)C(=O)O)c3ccc4c(S(=O)(=O)O)cc(S(=O)(=O)O)cc4c3C2(C)C)C(C)(C)c2c1ccc1c(S(=O)(=O)O)cc(S(=O)(=O)O)cc21
[1]
  IC50: 0.55 nM
[2]
  Activity: Active

## N[C@@H](CCC(=O)N[C@@H](COP(=O)(O)O[C@@H](CCC(=O)O)C(=O)O)C(=O)O)C(=O)O
[1]
  IC50: 144 nM
[2]
  Activity: Active

## CCN1/C(=C/C=C/C=C/C2=[N+](CCCCCC(=O)[O-])c3ccc4c(S(=O)(=O)O)cc(S(=O)(=O)O)cc4c3C2(C)C)C(C)(C)c2c1ccc1c(S(=O)(=O)O)cc(S(=O)(=O)O)cc21
[1]
  IC50: 6100 nM
